# According to patent US20070254882A1, “Sulfamide Derivatives and Pharmaceutical Composition for Upregulation of Lipid Metabolism Comprising Same” (CRYSTAL GENOMICS, INC., priority 2004, published 2007):
# Molecular target: T1, human PPAR α (Homo sapiens, UniProt Q07869)
# T1 construct: expressed in transfected cells; host or cells: HepG2 (ATCC HB-8065) or 293T cells (ATCC CRL-1573)
# T1 sequence (Q07869 239-466 limits assumed): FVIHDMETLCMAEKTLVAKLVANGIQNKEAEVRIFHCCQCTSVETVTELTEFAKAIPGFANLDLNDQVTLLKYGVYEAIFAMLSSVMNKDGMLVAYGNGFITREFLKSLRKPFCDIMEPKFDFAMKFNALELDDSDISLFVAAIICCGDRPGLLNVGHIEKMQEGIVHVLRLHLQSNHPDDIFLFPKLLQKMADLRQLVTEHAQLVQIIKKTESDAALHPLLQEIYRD
# Experiment: Exogeneous PPAR α agonist assay (GAL4 DNA binding domain/PPAR α ligand binding domain, luciferase) in 293T cells
# Format: cell-based
# Design: scale not given here
# Settings: 25 μM compound, 48 hours, luciferase activity increase relative to the control
# Method: Step 1) Exogeneous PPAR α Agonist Assay
# Cross-activation assay of the compounds of Examples 1 to 134 against human PPAR α was carried out using a DNA construct of PPAR α including its ligand binding domain and GAL4 DNA binding domain (Sher et al., Biochemistry 32, 5598-5604, 1993) to analyze whether any of the compounds binds to the ligand binding domain of PPAR α expressed by the construct to affect the PPAR α activity. When the GAL4 DNA binding domainm which is fused with PPAR α ligand binding domain, binds to UAS (upstream activation sequence) of firefly-luciferase, the luciferase is expressed. Therefore, the effect of each of the compounds of Examples on PPAR α activation can be evaluated by analyzing the activation of luciferase.
# Specifically, 2×10^4 of HepG2 (ATCC HB-8065) or 293T cells (ATCC CRL-1573) were aliquotted into each well of a 96-well plate and cultured for overnight at 37° C. in a CO2 incubator (culture condition: DMEM, 10% FBS and 1% antibiotics).
# The transformation of PPAR α DNA was traced as follows. First, a mixture of the following ingredients in amounts per well; Solution A (Promega) containing 50 ng of full length human PPAR α DNA, 50 ng of firefly-luciferase construct, 5 ng of Renilla-luciferase construct, 1.0 μl of PLUS™ reagent, and 8.3 μl of a serum-free medium containing no antibiotics; was prepared and kept at room temperature for 15 min. Solution B, which contained 0.5 μl of Lipofectamine™ reagent and 9.5 μl of serum-free medium without antibiotics per well, and Solution C, which contained 50 μl of serum-free medium per well), were prepared. Solutions A, B and C were mixed together to prepare lipofectamin-DNA complex, and the mixture was kept at room temperature for 15 min. Single layer of cells on each well of a 96-well plate were washed with serum-free DMEM, 70 μl of lipofectamine-DNA complex prepared above was added thereto, the plate was incubated at 37° C. in a 5% CO2 incubator for 3 hours to transform the cells, and […] of a diluted solution of each of the compounds of Examples 1 to 134 per well was added to each well to a final concentration 25 μM, and incubated at 37° C. in a CO2 incubator for 48 hours. Then, the medium was removed, 50 μl of passive lysis buffer (Promega) was added thereto, and the plate was shook at room temperature for 20 min to lysis cells. 40 μl of Luciferase Assay reagent of Dual Luciferase Kit […] per 20 μl of cell lysis buffer was added to the plate, followed by reacting at 20° C. for 8 seconds, and 40 μl of Stop & Glo reagent (Promega) as a stop solution was added thereto to quench the reaction. The luminescence intensities of F-luciferase and R-luciferase were measured with MicroLumat Plus (Berthord Technology).
row,Compound,Activity at 25 μM Step 1 293T cell
1,"Cc1oc(-c2ccc(C(F)(F)F)cc2)nc1CCOc1ccc(CN(CC(=O)O)S(=O)(=O)N(C)C)cc1 [Example 103, [N—(N,N-dimethylamino)sulfonyl-N-[4-[2-[2-(4-trifluoromethylphenyl)-5-methyloxazol-4-yl]ethoxy]benzyl]amino]acetic acid]",2
2,"Cc1oc(-c2ccccc2)nc1COc1cccc(CN(CC(=O)O)S(=O)(=O)N2CCCc3ccccc32)c1 [Example 34, [N-(1,2,3,4-tetrahydroquinolinyl)sulfonyl-N-[3-[(2-phenyl-5-methyloxazol-4-yl)methoxy]benzyl]amino]acetic acid]",2
3,"Cc1oc(-c2ccccc2)nc1CCOc1ccc(CN(CC(=O)O)S(=O)(=O)N(C)c2ccccc2)cc1 [Example 105, [N—[(N-methyl-N-phenyl)amino]sulfonyl-N-[4-[2-(2-phenyl-5-methyloxazol-4-yl)ethoxy]benzyl]amino]acetic acid]",2
4,"Cc1oc(-c2ccc(C(F)(F)F)cc2)nc1CCOc1ccc(CN(CC(=O)O)S(=O)(=O)N2CCCc3ccccc32)cc1 [Example 122, [N-(1,2,3,4-tetrahydroquinolinyl)sulfonyl-N-[4-[2-[2-(4-trifluoromethylphenyl)-5-methyloxazol-4-yl]ethoxy]benzyl]amino]acetic acid]",2
5,"Cc1oc(-c2ccccc2)nc1CCOc1ccc(CN(CC(=O)O)S(=O)(=O)N(C)c2ccc(Cl)cc2)cc1 [Example 109, [N—[[N-methyl-N-(4-chlorophenyl)]amino]sulfonyl-N-[4-[2-(2-phenyl-5-methyloxazol-4-yl)ethoxy]benzyl]amino]acetic acid]",3
6,"Cc1oc(-c2ccc(C(F)(F)F)cc2)nc1CCOc1ccc(CN(CC(=O)O)S(=O)(=O)N(C)c2ccc(Cl)cc2)cc1 [Example 114, [N—[[N-methyl-N-(4-chlorophenyl)]amino]sulfonyl-N-[4-[2-[2-(4-trifluoromethylphenyl)-5-methyloxazol-4-yl]ethoxy]benzyl]amino]acetic acid]",2
7,"Cc1nc(-c2ccc(C(F)(F)F)cc2)oc1COc1cccc(CN(CC(=O)O)S(=O)(=O)N2CCOCC2)c1 [Example 29, [N-(morpholinyl)sulfonyl-N-[3-[[2-(4-trifluoromethylphenyl)-4-methyloxazol-5-yl]methoxy]benzyl]amino]acetic acid]",2
8,"Cc1oc(-c2ccccc2)nc1COc1cccc(CN(CC(=O)O)S(=O)(=O)N(C)c2ccccc2)c1 [Example 14, [N—[(N-methyl-N-phenyl)amino]sulfonyl-N-[3-[(2-phenyl-5-methyloxazol-4-yl)methoxy]benzyl]amino]acetic acid]",2
9,"Cc1oc(-c2cccs2)nc1COc1cccc(CN(CC(=O)O)S(=O)(=O)N(C)C)c1 [Example 12, [N—(N,N-dimethylamino)sulfonyl-N-[3-[[2-(thiophen-2-yl)-5-methyloxazol-4-yl]methoxy]benzyl]amino]acetic acid]",2
10,"Cc1oc(-c2ccc(C(F)(F)F)cc2)nc1COc1cccc(CN(CC(=O)O)S(=O)(=O)N(C)c2ccc(Cl)cc2)c1 [Example 20, [N—[[N-methyl-N-(4-chlorophenyl)]amino]sulfonyl-N-[3-[[2-(4-trifluoromethylphenyl)-5-methyloxazol-4-yl]methoxy]benzyl]amino]acetic acid]",2
11,"Cc1oc(-c2ccc(C(F)(F)F)cc2)nc1CCOc1cccc(CN(CC(=O)O)S(=O)(=O)N2CCOCC2)c1 [Example 87, [N-(morpholinyl)sulfonyl-N-[3-[2-[2-(4-trifluoromethylphenyl)-5-methyloxazol-4-yl]ethoxy]benzyl]amino]acetic acid]",1
12,"Cc1oc(-c2ccccc2)nc1COc1cccc(CN(CC(=O)O)S(=O)(=O)N(C)c2ccc(Cl)cc2)c1 [Example 18, [N—[[N-methyl-N-(4-chlorophenyl)]amino]sulfonyl-N-[3-[(2-phenyl-5-methyloxazol-4-yl)methoxy]benzyl]amino]acetic acid]",2
13,Cc1oc(-c2ccccc2)nc1CCOc1ccc(CN(CC(=O)O)S(=O)(=O)N2CCc3ccccc32)cc1 [Example 116],2
14,"Cc1ccc(-c2nc(COc3cccc(CN(CC(=O)O)S(=O)(=O)N(C)c4ccc(Cl)cc4)c3)c(C)o2)cc1 [Example 19, [N—[[N-methyl-N-(4-chlorophenyl)]amino]sulfonyl-N-[3-[[2-(4-methylphenyl)-5-methyloxazol-4-yl]methoxy]benzyl]amino]acetic acid]",2
15,"Cc1oc(-c2ccccc2)nc1CCOc1ccc(CN(CC(=O)O)S(=O)(=O)N(C)C)cc1 [Example 98, [N—(N,N-dimethylamino)sulfonyl-N-[4-[2-(2-phenyl-5-methyloxazol-4-yl)ethoxy]benzyl]amino]acetic acid]",1
16,"Cc1oc(-c2cccs2)nc1CCOc1ccc(CN(CC(=O)O)S(=O)(=O)N(C)C)cc1 [Example 104, [N—(N,N-dimethylamino)sulfonyl-N-[4-[2-[2-(thiophen-2-yl)-5-methyloxazol-4-yl]ethoxy]benzyl]amino]acetic acid]",1

# More lines, now with the values ahead:
row,Activity at 25 μM Step 1 293T cell,Compound
1,2,"Cc1oc(-c2ccccc2)nc1COc1ccc(CN(CC(=O)O)S(=O)(=O)N(C)C)cc1 [Example 38, [N—(N,N-dimethylamino)sulfonyl-N-[4-[(2-phenyl-5-methyloxazol-4-yl)methoxy]benzyl]amino]acetic acid]"
2,3,"Cc1ccc(-c2nc(COc3cccc(CN(CC(=O)O)S(=O)(=O)N(C)C)c3)c(C)o2)cc1 [Example 4, [N—[(N,N-dimethylamino)sulfonyl]-N-[3-[[2-(4-methylphenyl)-5-methyloxazol-4-yl]methoxy]benzyl]amino]acetic acid]"
3,2,"Cc1nc(-c2ccc(C(F)(F)F)cc2)oc1COc1cccc(CN(CC(=O)O)S(=O)(=O)N2CCCC2)c1 [Example 26, [N-(pyrrolidinyl)sulfonyl-N-[3-[[2-(4-trifluoromethylphenyl)-4-methyloxazol-5-yl]methoxy]benzyl]amino]acetic acid]"
4,3,"Cc1ccc(-c2nc(COc3ccc(CN(CC(=O)O)S(=O)(=O)N4CCCC4)cc3)c(C)o2)cc1 [Example 42, [N-(pyrrolidinyl)sulfonyl-N-[4-[[2-(4-methylphenyl)-5-methyloxazol-4-yl]methoxy]benzyl]amino]acetic acid]"
5,1,"Cc1oc(-c2ccc(C(F)(F)F)cc2)nc1CCOc1cccc(CN(CC(=O)O)S(=O)(=O)N2CCCC2)c1 [Example 85, [N-(pyrrolidinyl)sulfonyl-N-[3-[2-[2-(4-trifluoromethylphenyl)-5-methyloxazol-4-yl]ethoxy]benzyl]amino]acetic acid]"
6,1,"Cc1ccc(-c2nc(CCOc3cccc(CN(CC(=O)O)S(=O)(=O)N4CCN(C)CC4)c3)c(C)o2)cc1 [Example 88, [N-(4-methyl-1-piperazinyl)sulfonyl-N-[3-[2-[2-(4-methylphenyl)-5-methyloxazol-4-yl]ethoxy]benzyl]amino]acetic acid]"
7,2,"Cc1oc(-c2ccccc2)nc1COc1ccc(CN(CC(=O)O)S(=O)(=O)N2CCc3ccccc32)cc1 [Example 53, [N-(indolinyl)sulfonyl-N-[4-[(2-phenyl-5-methyloxazol-4-yl)methoxy]benzyl]amino]acetic acid]"
